Three molecules from ChEMBL document CHEMBL3608233, “Potent benzoazepinone γ-secretase modulators with improved bioavailability” (Bioorg Med Chem Lett, 2015) can be followed below.

Data set [1] is described as follows: in vivo. The following applies: APP YAC Tg, mouse, brain, 50 mg/kg.
Data set [2] can be described thus: in vivo. The note with it: APP YAC Tg, mouse, plasma, 50 mg/kg.
Data set [3] is described as follows: in vivo. The note with it: APP YAC Tg, mouse, brain, 100 mg/kg.
The nature of data set [4]: in vivo. The note with it: APP YAC Tg, mouse, plasma, 100 mg/kg.
Data set [5] can be described thus: Drug metabolism in dog urine assessed as formation of methyl ester cleavage product. The format is ADME, tissue-based, Canis lupus familiaris.
Data set [6] in a line: in vitro. The following applies: pig, LLC-PK1.
A short description of data set [7]: in vivo. The following applies: Sprague-Dawley, rat, po, 2 mg/kg.
The nature of data set [8]: Ratio of drug level in brain to plasma in APP YAC Tg mouse model at 30 mg/kg after 6 hrs. The following applies: brain and plasma, read-out: BPR. It counts as ADME, organism-based.
Data set [9] is described as follows: in vivo. The note with it: Sprague-Dawley, rat, iv, 1 mg/kg.
Data set [10] can be described thus: physchem. The following applies: buffer, pH 7.
Data set [11] in a line: in vivo. The following applies: beagle, dog.
Data set [12] is described as follows: Drug metabolism in dog urine assessed as oxidation of methylimidazole. The format is ADME, tissue-based, Canis lupus familiaris.
Data set [13] is described as follows: in vitro. The note with it: human, hepatocytes.
Data set [14] can be described thus: Drug metabolism in dog urine assessed as oxidation of benzoazepinone. It counts as ADME, tissue-based, Canis lupus familiaris.
Data set [15] in a line: Drug uptake in brain of APP YAC Tg mouse model at 30 mg/kg after 6 hrs. The note with it: read-out: Drug uptake. The format is ADME, organism-based.
Data set [16] in a line: in vitro. The note with it: rat, hepatocytes.
Data set [17] can be described thus: Plasma concentration in APP YAC Tg mouse model at 30 mg/kg after 6 hrs. The format is ADME, organism-based.
Data set [18] in a line: in vivo. The following applies: beagle, dog, iv.
The nature of data set [19]: in vivo. The following applies: Sprague-Dawley, rat, iv, 1 mg/kg. This is another data set of the same source.
For another data set, the species on record is Canis familiaris. The note with it: dog, in vivo, po, 0.5 mg/kg.
Data set [20] can be described thus: in vivo. The following applies: Sprague-Dawley, rat.
The nature of data set [21]: in vivo. The following applies: beagle, dog, iv. The source holds these as a separate data set.
The nature of data set [22]: physchem. The following applies: buffer, pH 2.
Data set [23] in a line: Drug metabolism in dog hepatocytes assessed as formation of methyl ester cleavage product. It counts as ADME, cell-based, Canis lupus familiaris, Hepatocyte.
A short description of data set [24]: in vitro. The following applies: dog, hepatocytes.
Data set [25] in a line: Drug metabolism in dog hepatocytes assessed as oxidation of benzoazepinone. The format is ADME, cell-based, Canis lupus familiaris, Hepatocyte.

Molecules are shown by their SMILES. ≈ marks a conversion by molar mass, not a printed value.

On to `Cc1cn(-c2ccc(-c3cn([C@H]4CCc5c(F)cccc5N(CC(F)(F)F)C4=O)nn3)cc2F)cn1`, for which the concentration at 6 h in the data set “in vivo [1]” is 6.8 µM; in “in vivo [2]”, 15 µM.
Regarding `COc1cc(-c2cn([C@H]3CCc4c(F)cccc4N(CC(F)(F)F)C3=O)nn2)ccc1-n1cnc(C(F)(F)F)c1`, the concentration at 6 h was 870 nM in “in vivo [3]” and 4.5 µM in “in vivo [4]”.
For orientation: Papp means a coefficient for how fast a substance crosses the barrier. Read a high Papp as ready permeation. Usually bioavailability stands for dose-corrected exposure relative to a reference, in per cent. Low readings indicate little systemic uptake, high ones much systemic uptake. A word on the clearance: it is the rate of elimination divided by the concentration. The solubility is the dissolved amount per volume that the medium holds. A low value points to little dissolved substance. What is called half-life is the time in which the quantity being followed falls by half. Lower therefore signals rapid decline. In general, CLint scaled refers to the rate of metabolic loss divided by the concentration. Higher therefore signals faster metabolism. For orientation: Vd means a proportionality between amount in the body and measured concentration, not a real space. Higher therefore signals extensive tissue distribution. For `COc1cc(-c2cn([C@H]3CCc4c(F)cccc4N(CC(F)(F)F)C3=O)nn2)ccc1-n1cnc(C)c1`, the Drug metabolism entry in data set [5] was “metabolite_notdetected”; in [12], “metabolite_detected”; in data set [14], “metabolite_detected”; in data set [23] it was “metabolite_notdetected”; in data set [25], “metabolite_detected”. In addition, the Papp in “in vitro [6]” was 21 ×10⁻⁶ cm/s. The molecule further came in with a bioavailability in “in vivo [7]” of 100%. The Kp at 6 h in data set [8] came out at 0.3. Also, the clearance is 38 mL/min/kg in “in vivo [9]” and 98 mL/min/kg in the data set “in vivo [18]”. The values for the solubility in the data set “physchem [10]” and in the data set “physchem [22]” were 4.2 µM (≈ 2.16 µg/mL) and 170 µM (≈ 87.5 µg/mL), respectively. The half-life is 42 min in the data set “in vivo [11]” and 48 min in “in vivo [20]”. Moreover, the CLint scaled in the data set “in vitro [13]” amounted to 94 mL/min/kg; in “in vitro [16]” it was 210 mL/min/kg; in “in vitro [24]”, 400 mL/min/kg. The figures for the concentration at 6 h in data set [15] and in data set [17] were 1600 nM and 5.1 µM, respectively. The Vd in “in vivo [19]” stood at 4.8 L/kg; in the data set “in vivo [21]” it was 5.6 L/kg. For the same molecule, the F result in the data set listed under Canis familiaris is “BLD”.
